Source: US20200289514A1, “Novel Pyrazolo Pyrimidine Derivatives” (Novartis AG, priority 2015, published 2020)

What was measured:
[1] = system: Human IL2 promoter; test: Human IL2 promoter reporter gene assay (RGA) in Jurkat cells; type: cell-based; settings: Jurkat clone K22 290_H23, anti-CD28 mAb + PMA, 5.5 h
Procedure: Human IL2 Promoter Reporter Gene Assay (RGA) in Jurkat Cells
The transfected Jurkat clone K22 290_H23 was propagated in RPMI 1640 supplemented with 10% heat inactivated fetal calf serum, 50 μM 2-mercaptoethanol and 1 mg/ml Geneticin. The cell concentration should not exceed 1×10e6/ml during culturing. The cells should not exceed passage 30. Prior to the assay the cells were washed and prepared to the concentration of 2×10e6 cells/ml.
Compound dilutions were made as 2×-concentrated solutions then diluted ½ by addition to cells. Two hundred and fifty μl of compound dilution and 250 μl of cells were mixed together in wells of a 96-deep well plate. Cells/compounds premix were incubated 30 min at 37° C. and 5% CO2 directly in the deep well plate.
After pre-incubation of cells with compounds, cells were stimulated with anti-CD28 mAb (clone 15E8) at 3 μg/ml+PMA at 1 μg/ml. Both co-stimulants were diluted in culture medium at a 10×-concentrated solution. 10 μl of co-stimulants were pipetted into the white 96-well plates and 100 μl of cell/compound mix was immediately added in duplicates. The cells were stimulated for 5.5 h at 37° C. and 5% CO2.
After cell stimulation, 50 μl of BriteLitePlus reagent (Perkin Elmer) was added to each well and the bioluminescence was measured with a Wallac EnVision reader (Perkin Elmer).

[2] = target: T1, C-domain of MALT1 (amino acids 329-824) (Homo sapiens, UniProt Q9UDY8); test: MALT1 Biochemical Assay - Version 1 (fluorescence lifetime)
T1 sequence (Q9UDY8 329-824): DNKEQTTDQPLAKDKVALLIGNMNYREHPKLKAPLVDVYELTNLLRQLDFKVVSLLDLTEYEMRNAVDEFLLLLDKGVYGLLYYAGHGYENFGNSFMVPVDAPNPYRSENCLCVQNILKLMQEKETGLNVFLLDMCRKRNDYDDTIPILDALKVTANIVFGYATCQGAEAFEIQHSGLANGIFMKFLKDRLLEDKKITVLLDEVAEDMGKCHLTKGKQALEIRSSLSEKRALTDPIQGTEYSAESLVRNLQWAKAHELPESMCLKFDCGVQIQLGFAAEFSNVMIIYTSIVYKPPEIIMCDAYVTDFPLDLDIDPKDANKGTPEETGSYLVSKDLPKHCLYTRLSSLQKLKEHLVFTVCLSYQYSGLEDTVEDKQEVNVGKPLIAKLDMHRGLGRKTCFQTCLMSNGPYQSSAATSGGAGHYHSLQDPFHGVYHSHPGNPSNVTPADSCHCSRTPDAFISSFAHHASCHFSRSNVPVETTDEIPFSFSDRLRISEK
Procedure: The readout parameter is the increase of fluorescence lifetime over time, proportional to enzyme activity.
The assay employs a short peptide substrate labeled with the single fluorophore PT14 as a fluorescence lifetime probe sensitive to the cleavage state of the substrate (PT14: 6-(9-oxo-9H-acridin-10-yl)-hexanoate, AssayMetrics, UK). […] Test compounds were dissolved in 100% (v/v) DMSO or a mixture containing 90% (v/v) DMSO and 10% (v/v) H2O at a stock concentration of 100 mM. Serial dilutions of test compounds were prepared using either 100% (v/v) DMSO or a mixture containing 90% (v/v) DMSO and 10% (v/v) H2O.
where y is the %-inhibition at the inhibitor concentration, x. A1 is the lowest inhibition value, and A2 the maximum inhibition value. The exponent, p, is the Hill coefficient.

CO[C@@H](C)c1c(NC(=O)Nc2cncc(C(F)(F)F)c2)cnc2cc(F)nn12 [Example 30, (S)-1-(2-fluoro-7-(1-methoxyethyl)pyrazolo [1,5-a]pyrimidin-6-yl)-3-(5-(trifluoro-methyl)pyridin-3-yl)urea]
IC50 [1]: 0.02 µM
IC50 [2]: 0.007 µM

CO[C@@H](C)c1c(NC(=O)Nc2cnc(C(=O)N3CCCC3)c(Cl)c2)cnc2cc(Cl)nn12 [Example 33, (S)-1-(5-chloro-6-(pyrrolidine-1-carbonyl)pyridin-3-yl)-3-(2-chloro-7-(1-methoxyethyl)pyrazolo [1,5-a]pyrimidin-6-yl)urea]
IC50 [1]: 0.044 µM
IC50 [2]: 0.011 µM

C[C@H](N)c1c(NC(=O)Nc2cnc(-n3nccn3)c(Cl)c2)cnc2cc(Cl)nn12 [Example 38, (S)-1-(7-(1-aminoethyl)-2-chloropyrazolo[1,5-a]pyrimidin-6-yl)-3-(5-chloro-6-(2H-1,2,3-triazol-2-yl)pyridin-3-yl)urea]
IC50 [1]: 0.086 µM
IC50 [2]: 0.024 µM

CO[C@H](c1c(NC(=O)Nc2cnc(-n3nccn3)c(C#N)c2)cnc2cc(C)nn12)C(C)C [Example 15, (S)-1-(5-cyano-6-(2H-1,2,3-triazol-2-yl)pyridin-3-yl)-3-(7-(1-methoxy-2-methylpropyl)-2-methylpyrazolo[1,5-a]pyrimidin-6-yl)urea]
IC50 [1]: 0.012 µM
IC50 [2]: 0.009 µM

CO[C@H](c1c(NC(=O)Nc2cnc(-n3nccn3)c(Cl)c2)cnc2cc(F)nn12)C(C)C [Example 14, (S)-1-(5-chloro-6-(2H-1,2,3-triazol-2-yl)pyridin-3-yl)-3-(2-fluoro-7-(1-methoxy-2-methylpropyl)pyrazolo [1,5-a]pyrimidin-6-yl)urea]
IC50 [1]: 0.006 µM
IC50 [2]: 0.003 µM

COCC1(c2c(NC(=O)Nc3cncc(C#N)c3)cnc3cc(Cl)nn23)CC1 [Example 9, 1-(2-chloro-7-(1-(methoxymethyl)cyclopropyl)pyrazolo[1,5-a]pyrimidin-6-yl)-3-(5-cyanopyridin-3-yl)urea]
IC50 [1]: 0.093 µM
IC50 [2]: 0.029 µM

CO[C@@H](C)c1c(NC(=O)Nc2ccnc(C(F)(F)F)c2)cnc2cc(Cl)nn12 [Example 3, (S)-1-(2-chloro-7-(1-methoxyethyl)pyrazolo[1,5-a]pyrimidin-6-yl)-3-(2-(trifluoromethyl)pyridin-4-yl)urea]
IC50 [1]: 0.036 µM

CO[C@@H](C)c1c(NC(=O)Nc2cncc(C(F)F)c2)cnc2cc(F)nn12 [Example 29, (S)-1-(5-(difluoro-methyl)pyridin-3-yl)-3-(2-fluoro-7-(1-methoxyethyl)-pyrazolo[1,5-a]pyrimidin-6-yl)urea]
IC50 [1]: 0.135 µM
IC50 [2]: 0.05 µM

CO[C@@H](C)c1c(NC(=O)Nc2ccnc(C(O)C(F)(F)F)c2)cnc2cc(Cl)nn12 (stereo partly drawn) [Example 20, 1-(2-chloro-7-((S)-1-methoxyethyl)pyrazolo [1,5-a]pyrimidin-6-yl)-3-(2-(2,2,2-trifluoro-1-hydroxyethyl)pyridin-4-yl)urea]
IC50 [1]: 0.101 µM
IC50 [2]: 0.009 µM

CO[C@@H](C)c1c(NC(=O)Nc2cnc(C(=O)N(C)C)c(Cl)c2)cnc2cc(Cl)nn12 [Example 31, (S)-3-chloro-5-(3-(2-chloro-7-(1-methoxyethyl)pyrazolo [1,5-a]pyrimidin-6-yl)ureido)-N,N-dimethylpicolinamide]
IC50 [1]: 0.035 µM
IC50 [2]: 0.012 µM

CO[C@@H](C)c1c(NC(=O)Nc2cc[n+]([O-])c(C(F)F)c2)cnc2cc(F)nn12 [Example 42, (S)-2-(difluoromethyl)-4-(3-(2-fluoro-7-(1-methoxyethyl)pyrazolo[1,5-a]pyrimidin-6-yl)ureido)pyridine 1-oxide]
IC50 [1]: 0.729 µM
IC50 [2]: 0.096 µM

COCC(OC)c1c(NC(=O)Nc2cnc(-n3nccn3)c(C#N)c2)cnc2cc(Cl)nn12 (stereo not shown) [Example 19, 1-(2-chloro-7-(1,2-dimethoxyethyl)pyrazolo [1,5-a]pyrimidin-6-yl)-3-(5-cyano-6-(2H-1,2,3-triazol-2-yl)pyridin-3-yl)urea]
IC50 [1]: 0.056 µM
IC50 [2]: 0.009 µM

CO[C@@H](C)c1c(NC(=O)Nc2cc(Cl)nc(C(=O)N(C)C)c2)cnc2cc(Cl)nn12 [Example 28, (S)-6-chloro-4-(3-(2-chloro-7-(1-methoxyethyl)pyrazolo [1,5-a]pyrimidin-6-yl)ureido)-N, N-dimethylpicolinamide]
IC50 [1]: 0.045 µM
IC50 [2]: 0.013 µM

CO[C@@H](C)c1c(NC(=O)Nc2cnc(-n3nccn3)c(C#N)c2)cnc2cc(F)nn12 [Example 18, (S)-1-(5-cyano-6-(2H-1,2,3-triazol-2-yl)pyridin-3-yl)-3-(2-fluoro-7-(1-methoxyethyl)pyrazolo [1,5-a]pyrimidin-6-yl)urea]
IC50 [1]: 0.019 µM
IC50 [2]: 0.004 µM

COc1ncc(NC(=O)Nc2cnc3cc(Cl)nn3c2[C@H](C)O[C@H]2CCN(C(C)=O)C2)cc1C#N [Example 26, 1-(7-((S)-1-(((S)-1-acetylpyrrolidin-3-yl)oxy)ethyl)-2-chloropyrazolo[1,5-a]pyrimidin-6-yl)-3-(5-cyano-6-methoxypyridin-3-yl)urea]
IC50 [1]: 0.113 µM
IC50 [2]: 0.022 µM

COCCO[C@@H](C)c1c(NC(=O)Nc2cnc(-n3nccn3)c(C(F)(F)F)c2)cnc2cc(Cl)nn12 [Example 7, (S)-1-(6-(2H-1,2,3-triazol-2-yl)-5-(trifluoromethyl)pyridin-3-yl)-3-(2-chloro-7-(1-(2-methoxyethoxy)ethyl)pyrazolo[1,5-a]pyrimidin-6-yl)urea]
IC50 [1]: 0.027 µM
IC50 [2]: 0.007 µM

CO[C@@H](C)[C@H](OC)c1c(NC(=O)Nc2cnc(-n3nccn3)c(C#N)c2)cnc2cc(Cl)nn12 [Example 25, 1-(2-chloro-7-((1R, 2S)-1,2-dimethoxypropyl)pyrazolo[1,5-a]pyrimidin-6-yl)-3-(5-cyano-6-(2H-1,2,3-triazol-2-yl)pyridin-3-yl)urea]
IC50 [1]: 0.021 µM
IC50 [2]: 0.004 µM

C[C@H](O)c1c(NC(=O)Nc2ccnc(C(F)F)c2)cnc2cc(F)nn12 [Example 40, (S)-1-(2-(difluoromethyl)pyridin-4-yl)-3-(2-fluoro-7-(1-hydroxyethyl)pvrazolo[1,5-a]pyrimidin-6-yl)urea]
IC50 [1]: 0.1 µM
IC50 [2]: 0.011 µM

Cc1cc2ncc(NC(=O)Nc3cncc(C#N)c3)c([C@H](C)O)n2n1 [Example 39, (S)-1-(5-cyanopyridin-3-yl)-3-(7-(1-hydroxyethyl)-2-methylpyrazolo [1,5-a]pyrimidin-6-yl)urea]
IC50 [1]: 0.604 µM
IC50 [2]: 0.072 µM

COc1ncc(NC(=O)Nc2cnc3cc(C)nn3c2[C@H](C)OC)cc1C#N [Example 24, (S)-1-(5-cyano-6-methoxypyridin-3-yl)-3-(7-(1-methoxyethyl)-2-methylpyrazolo[1,5-a]pyrimidin-6-yl)urea]
IC50 [1]: 0.062 µM
IC50 [2]: 0.014 µM

CC(C)c1c(NC(=O)Nc2cnc(-n3nccn3)c(Cl)c2)cnc2cc(Cl)nn12 [Example 4, 1-(5-chloro-6-(2H-1,2,3-triazol-2-yl)pyridin-3-yl)-3-(2-chloro-7-isopropylpyrazolo[1,5-a]pyrimidin-6-yl)urea]
IC50 [1]: 0.103 µM

CO[C@@H](C)c1c(NC(=O)Nc2cnc(-n3nccn3)c(C#N)c2)cnc2cc(C)nn12 [Example 27, (S)-1-(5-cyano-6-(2H-1,2,3-triazol-2-yl)pyridin-3-yl)-3-(7-(1-methoxyethyl)-2-methylpyrazolo[1,5-a]pyrimidin-6-yl)urea]
IC50 [1]: 0.035 µM
IC50 [2]: 0.008 µM

CO[C@@H](C)[C@H](OC)c1c(NC(=O)Nc2cnc(-n3nccn3)c(Cl)c2)cnc2cc(Cl)nn12 [Example 10, 1-(5-chloro-6-(2H-1,2,3-triazol-2-yl)pyridin-3-yl)-3-(2-chloro-7-((1R, 2S)-1,2-dimethoxypropyl)pyrazolo[1,5-a]pyrimidin-6-yl) urea]
IC50 [1]: 0.022 µM

CO[C@@H](C)c1c(NC(=O)Nc2ccnc(C#N)c2)cnc2cc(F)nn12 [Example 23, (S)-1-(2-cyanopyridin-4-yl)-3-(2-fluoro-7-(1-methoxyethyl)pyrazolo [1,5-a]pyrimidin-6-yl)urea]
IC50 [1]: 0.042 µM
IC50 [2]: 0.016 µM

CO[C@@H](C)c1c(NC(=O)Nc2cncc(C#N)c2)cnc2cc(F)nn12 [Example 12, (S)-1-(5-cyanopyridin-3-yl)-3-(2-fluoro-7-(1-methoxyethyl)pyrazolo[1,5-a]pyrimidin-6-yl)urea]
IC50 [1]: 0.073 µM
IC50 [2]: 0.031 µM

COCC1(c2c(NC(=O)Nc3ccnc(C#N)c3)cnc3cc(Cl)nn23)CC1 [Example 37, 1-(2-chloro-7-(1-(methoxymethyl)cyclopropyl)pyrazolo [1,5-a]pyrimidin-6-yl)-3-(2-cyanopyridin-4-yl)urea]
IC50 [1]: 0.057 µM
IC50 [2]: 0.025 µM
